{
  "source": "patent US20240216387A1",
  "about": "“COMPOSITION FOR PREVENTING OR TREATING MUSCULAR DISEASE, COMPRISING OXICAM-BASED COMPOUND” (ANIMUSCURE INC., priority 2021, published 2024)",
  "key": {"[1]": {"system": "24-month-old mice", "assay": "Muscle mass, muscle type and motor performance in aging mice upon long-term administration", "format": "in vivo"}, "[2]": {"system": "relatively young mice", "assay": "Grip strength and motor performance in relatively young mice (FIG. 15)", "format": "in vivo", "description": "On day 21 after inducing CTX-injury, a grip strength test for measuring the muscle strength of the meloxicam-administered group and the control group and an experiment for confirming motor performance were conducted. The grip strength test was performed by using a mouse grip strength tester manufactured by BIOSEB."}, "[3]": {"system": "human muscle stem cells", "assay": "Human muscle stem cell differentiation (MHC immunostaining, myotube diameter)", "format": "cell-based", "conditions": "muscle stem cells from subject, meloxicam 1 μM, 4 days", "description": "In addition, human muscle stem […] human skeletal muscle cells (Standard Donors), Cat NO: SK-1111) isolated from the rectus abdominis […] were purchased from MyoSite and used. Human muscle stem […] human skeletal muscle cells (Standard Donors), Cat NO: SK-1111) isolated from the rectus abdominis […] were purchased from MyoSite and used. Human muscle stem cells were seeded in a cell culture medium and cultured for 24 hours. […] The degree of differentiation into muscle fibers was measured through MHC immunostaining, which is a muscle fiber marker. Differentiation was analyzed by muscle fiber diameter."}, "[4]": {"system": "C2Cl2 cells", "assay": "Myoblast differentiation by meloxicam concentration (MHC immunofluorescence and Western blot)", "format": "cell-based, mice", "description": "The C2Cl2 cells were cultured in a general cell culture medium and a differentiation medium, respectively. DMEM supplemented with 10% fetal bovine serum was used as a normal cell culture medium (i.e., a growth medium (GM)), and DMEM containing 2% horse serum was used as a differentiation medium (DM). […] After differentiation, the cells were observed under a microscope, and the cells were disrupted and subjected to Western blot analysis using myogenin and MHC antibodies, which are differentiation markers. The C2Cl2 cells were washed with 1×PBS, fixed with 4% paraformaldehyde at room temperature, and then allowed to react at room temperature after adding a permeabilization buffer. The reaction was performed with PBST (blocking buffer) containing 5% goat serum and PBS containing 0.05% Tween 20 to inhibit non-specific antibody binding. After adding a primary antibody against myosin heavy chain (MHC), the resulting mixture was allowed to react at room temperature. A secondary antibody diluted 1:5000 in a blocking buffer was added and allowed to react at room temperature, and after applying a mounting solution (40% glycerol in DW) and fixing, images were taken under a fluorescence microscope to analyze the results."}, "[5]": {"system": "4-month-old normal mice", "assay": "Body weight, intake, grip strength, treadmill test and muscle mass in 4-month-old normal mice upon long-term administration", "format": "in vivo", "conditions": "meloxicam for 2 months", "description": "In the treadmill test, measurement was performed by using a treadmill device for mice manufactured by Columbus Instruments. Measurements started at a 10% slope and 8 m/min, which was increased 1 m/min every 2 minutes, and continued until the mouse became tired."}},
  "data": [
    {"smiles": "Cc1cnc(NC(=O)C2=C(O)c3ccccc3S(=O)(=O)N2C)s1", "note": "[meloxicam]", "values": [
      {"measurement": "effect of increasing motor performance", "setting": "[1]; 7-month-old mice", "result": "confirmed"},
      {"measurement": "muscle mass in the hindlimb muscles and EDL muscle", "setting": "[1]; 24-month-old mice, meloxicam for 4 months, FIG. 12", "result": "increased"},
      {"measurement": "motor performance increase (rotarod apparatus) compared to the control group", "setting": "[1]; aged mice, FIG. 14", "result": "more than 50%"},
      {"measurement": "motor performance increase", "setting": "[2]", "result": "up to 72.3%"},
      {"measurement": "muscle strength increase (grip strength test) compared to the control group", "setting": "[2]; day 21 after inducing CTX-injury as printed", "result": "about 21.9%"},
      {"measurement": "myotube diameter", "setting": "[3]; FIG. 4", "result": "increased"},
      {"measurement": "MHC expression", "setting": "[3]; FIG. 5", "result": "increased"},
      {"measurement": "myotube diameter", "setting": "[3]; FIG. 5", "result": "increased"},
      {"measurement": "MHC expression level (Western blot)", "setting": "[4]; by meloxicam concentration (1-10,000 nM), FIG. 3", "result": "increased"},
      {"measurement": "MHC observed in myoblasts (fluorescence microscope)", "setting": "[4]; high concentration of meloxicam (1-10,000 nM tested), differentiation for 3 days, FIG. 2", "result": "clearly observed"},
      {"measurement": "body weight change compared with the non-administration group", "setting": "[5]; FIG. 16A", "result": "no significant change"},
      {"measurement": "change in intake", "setting": "[5]; FIG. 16B", "result": "no change"},
      {"measurement": "muscle strength (grip strength test)", "setting": "[5]; FIG. 17A", "result": "improved"},
      {"measurement": "exercise duration (treadmill test)", "setting": "[5]; compared to the non-administration group, FIG. 17A", "result": "improved"}
    ]}
  ]
}
